Measurements reported in patent US12297295B2, “Peptide for treating cancer” (Saint Leo University, priority 2019, dated 2025).
Where two headings read alike, the source gives them in different places. One block for each substance: values may come before it. Where no end group is shown, it is not given here.

What was measured:
[1] = tested on: BT-549 breast cancer cells; conditions: for effect on viability of BT-549 breast cancer cells: two doubling times, CCK-8; for IC50: 96 h
Protocol: The effect of Peptides 7M and 7MM on BT-549 breast cancer cells (ATCC #HTB-122) was studied. Pierce Protein Transfection reagent (Thermo Scientific, 89850) was used to deliver peptide to the cultured cells. BT-549 breast cancer cells were transfected with 0.625-20 μM Peptide 7M or 1.25-10 μM Peptide 7MM for 3.5 hrs, incubated in a complete media for a duration of two doubling times (96 hours), and assessed for viability by using a CCK-8 colorimetric assay.
(§1) IC50 values were calculated from obtained equations that describe cell viability as a function of peptide concentration.

[2] = molecular target: T1, CMG helicase (Xenopus laevis, UniProt Q91876); experiment: S phase arrested Xenopus egg extracts, chromatin RPA Western blot as readout for DNA helicase activity; format: biochemical; conditions: 250 μM peptide, 90 min incubation
T1 construct: from tissue; host or cells: S phase arrested Xenopus egg extracts (endogenous proteins on chromatin)
Protocol: The peptide of SEQ ID NO: 1 was synthesized using solid-phase synthesis. The product was purified using HPLC to a purity of about 99%. 250 μM of peptide Ex7 ([…]) (SEQ ID NO: 8), peptide 7N (circularized—KGEVLQMEDDLV) (SEQ ID NO: 9), peptide 7M (ISFQLMLCVLDYF) (SEQ ID NO: 1), or peptide 7C (IKLSPPMLLKEPYK) (SEQ ID NO: 10) were incubated in S phase arrested Xenopus egg extracts. Following a 90 min incubation, chromatin was isolated and probed by Western blotting for RPA protein as a readout for DNA helicase activity. Additionally, peptide 7MN (ISFQLML) (SEQ ID NO: 5), peptide 7MM (QLMLCVL) (SEQ ID NO: 2), and peptide 7MC (LCVLDYF) (SEQ ID NO: 6) were tested.
250 μM of each of peptides 7α (DLVISFQLMLCVLDYFIK) (SEQ ID NO: 14), 7α-ln (LVISFQLMLCVLDYFIK) (SEQ ID NO: 22), 7α-2n (VISFQLMLCVLDYFIK) (SEQ ID NO: 23), 7α-3n (ISFQLMLCVLDYFIK) (SEQ ID NO: 24), 7α-4n (SFQLMLCVLDYFIK) (SEQ ID NO: 25), 7α-5n (FQLMLCVLDYFIK) (SEQ ID NO: 26), 7α-6n (QLMLCVLDYFIK) (SEQ ID NO: 27), 7α-7n (LMLCVLDYFIK) (SEQ ID NO: 28), 7α-17c (DLVISFQLMLCVLDYF) (SEQ ID NO: 29), 7α-16c (DLVISFQLMLCVLDY) (SEQ ID NO: 30), 7α-15c (DVISFQLMLCVLD) (SEQ ID NO: 31), 7α-14c (DVISFQLMLCVL) (SEQ ID NO: 32), 7α-11c (DVISFQLML) (SEQ ID NO: 33) was incubated in S phase arrested Xenopus egg extracts. Following a 90 min incubation, chromatin was isolated and probed by Western blotting for RPA protein as a readout for DNA helicase activity.

[3] = tested on: cancer cells; experiment: Viability of cancer cells, summary statement; format: cell-based
[4] = molecular target: T1, CMG helicase; experiment: S phase arrested Xenopus egg extracts, chromatin RPA Western blot as readout for DNA helicase activity; format: biochemical; conditions: extended from the above and other findings; no test described
[5] = tested on: HMEC primary mammary epithelial normal cells
Protocol: HMEC mammary epithelial cells (ATCC #PCS-600-010) were transfected with 1.25-20 μM peptide 7α for 3.5 hrs, incubated in a complete media for a duration of two doubling times, and assessed for viability by using a CCK-8 colorimetric assay (Dojindo Molecular Technologies, Inc.).
HMEC primary normal epithelial breast cells (ATCC #PCS-600-010) were transfected with 1.25-10 μM peptide 7MM for 3.5 hrs, incubated in a complete media for a duration of two doubling times, and assessed for viability by using a CCK-8 colorimetric assay (Dojindo Molecular Technologies, Inc.).
as §1

[6] = tested on: M059J glioma cancer cells; conditions: for IC50: 48 h
Protocol: (§2) Pierce Protein Transfection reagent (Thermo Scientific, 89850) was used to deliver peptide to the cultured cells.
M059J glioma cancer cells (ATCC #CRL-2366) were transfected with 1.25-10 μM peptide 7α for 3.5 hrs, incubated in a complete media for a duration of two doubling times, and assessed for viability by using a CCK-8 colorimetric assay (Dojindo Molecular Technologies, Inc.).
M059J glioma cancer cells (ATCC #CRL-2366) were transfected with 1.25-10 μM peptide 7MM for 3.5 hrs, incubated in a complete media for a duration of two doubling times, and assessed for viability by using a CCK-8 colorimetric assay (Dojindo Molecular Technologies, Inc.).
as §1

[7] = tested on: SVG p12 immortalized astroglia cells
Protocol: as §1

[8] = tested on: HepG2 liver cancer cells; conditions: 96 h
Protocol: as §2, §1

[9] = tested on: THLE-3 immortalized normal liver cells
Protocol: as §1

[10] = tested on: A549 lung cancer cells
Protocol: as §1

[11] = tested on: H596 lung cancer cells
Protocol: as §1

[12] = tested on: HLF normal primary lung fibroblasts
Protocol: The effect of peptide 7α of viability of HLF normal primary lung fibroblasts was studied. HLF normal primary lung fibroblasts (ATCC #PCS-201-013) were transfected with 1.25-10 μM peptide 7α for 3.5 hrs, incubated in a complete media for a duration of two doubling times, and assessed for viability by using a CCK-8 colorimetric assay (Dojindo Molecular Technologies, Inc.).
The effect of peptide 7MM of viability of normal lung cells was studied. HLF normal primary lung fibroblasts (ATCC #PC S-201-013) were transfected with 1.25-10 μM peptide 7MM for 3.5 hrs, incubated in a complete media for a duration of two doubling times, and assessed for viability by using a CCK-8 colorimetric assay (Dojindo Molecular Technologies, Inc.).
as §1

[13] = tested on: PANC-1 pancreatic cancer cells; conditions: 48 h
Protocol: The effect of Peptides 7M and 7MM on PANC-1 pancreatic cancer cells (ATCC #CRL-1469) was studied. Pierce Protein Transfection reagent (Thermo Scientific, 89850) was used to deliver peptide to the cultured cells. PANC-1 pancreatic cancer cells were transfected with 0.625-10 μM Peptide 7M or Peptide 7MM for 3.5 hrs, incubated in a complete media for a duration of two doubling times (48 hours), and assessed for viability by using a CCK-8 colorimetric assay.
The effect of peptide 7α of viability of pancreatic cancer cells was studied. PANC-1 pancreatic cancer cells (ATCC #CRL-1469) were transfected with 1.25-10 μM peptide 7α for 3.5 hrs, incubated in a complete media for a duration of two doubling times, and assessed for viability by using a CCK-8 colorimetric assay (Dojindo Molecular Technologies, Inc.).
as §1

[14] = tested on: Hs 766T pancreatic cancer cells
Protocol: as §1

[15] = tested on: hTERT-HPNE immortalized normal pancreatic cells
Protocol: as §1

[16] = tested on: DU145 prostate cancer cells
Protocol: DU145 prostate cancer cells (ATCC #HTB-81) were transfected with 1.25-10 μM peptide 7α for 3.5 hrs, incubated in a complete media for a duration of two doubling times, and assessed for viability by using a CCK-8 colorimetric assay (Dojindo Molecular Technologies, Inc.).
DU145 prostate cancer cells (ATCC #HTB-81) were transfected with 1.25-10 μM peptide 7MM for 3.5 hrs, incubated in a complete media for a duration of two doubling times, and assessed for viability by using a CCK-8 colorimetric assay (Dojindo Molecular Technologies, Inc.).
as §1

[17] = tested on: PC3 prostate cancer cells
Protocol: The effect of peptide 7α of viability of prostate cancer cells was studied. PC3 prostate cancer cells (ATCC #CRL-1435) were transfected with 1.25-10 μM peptide 7α for 3.5 hrs, incubated in a complete media for a duration of two doubling times, and assessed for viability by using a CCK-8 colorimetric assay (Dojindo Molecular Technologies, Inc.).
The effect of peptide 7MM of viability of prostate cancer cells was studied. PC3 prostate cancer cells (ATCC #CRL-1435) were transfected with 1.25-10 μM peptide 7MM for 3.5 hrs, incubated in a complete media for a duration of two doubling times, and assessed for viability by using a CCK-8 colorimetric assay (Dojindo Molecular Technologies, Inc.).
as §1

[18] = tested on: HCT-116 colorectal cancer cells
Protocol: The effect of peptide 7MM of viability of colorectal cancer cells was studied. HCT-116 colorectal cancer cells (ATCC #CCL-247) were transfected with 1.25-10 μM peptide 7MM for 3.5 hrs, incubated in a complete media for a duration of two doubling times, and assessed for viability by using a CCK-8 colorimetric assay (Dojindo Molecular Technologies, Inc.).
as §1

[19] = tested on: U-2 OS osteosarcoma cancer cells
Protocol: as §1

[20] = tested on: HT1080 fibrosarcoma cancer cells
Protocol: as §1

[21] = transfected 1.25-10 μM for 3.5 hrs
[22] = conclusion drawn from Examples 39, 41, 42 and FIGS. 42, 44, 45
[23] = extended from the above and other findings, no test described
[24] = transfected 2.5 and 5.0 μM for 3.5 hrs
[25] = transfected 1.25-10 μM for 3.5 hrs, two doubling times, CCK-8

Substance: DLVISFQGMLCVLDYFIK [7α-L8G]
- effect on viability of BT-549 breast cancer cells [1, 21]: inhibit viability of breast cancer cells

Substance: QLMLCVL [7MM, QLMLCVL]
- IC50 [1]: 6.8 µM
- IC50 [5]: 77.5 µM
- effect on viability of HMEC normal breast cells [5, 25]: does not affect viability
- IC50 [6]: 7.7 µM
- effect on viability of M059J glioma cells [6, 25]: decreases viability
- IC50 [7]: 60.4 µM
- effect on viability of SVG p12 normal glial cells [7, 25]: does not affect viability
- IC50 [8]: 14.2 µM
- IC50 [9]: 100 µM
- effect on viability of THLE-3 normal liver cells [9, 25]: does not affect viability
- IC50 [10]: 15.6 µM
- effect on viability of A549 lung cancer cells [10, 25]: decreases viability
- IC50 [11]: 7.6 µM
- effect on viability of H596 lung cancer cells [11, 25]: decreases viability
- IC50 [12]: 110 µM
- effect on viability of HLF normal primary lung fibroblasts [12, 25]: does not affect viability
- IC50 [13]: 10.1 µM
- IC50 [14]: 5.7 µM
- effect on viability of Hs 766T pancreatic cancer cells [14, 25]: decreases viability
- IC50 [15]: 79.9 µM
- effect on viability of hTERT-HPNE normal pancreatic cells [15, 25]: does not affect viability
- IC50 [16]: 10.6 µM
- effect on viability of DU145 prostate cancer cells [16, 25]: decreases viability
- IC50 [17]: 13 µM
- effect on viability of PC3 prostate cancer cells [17, 25]: decreases viability
- IC50 [18]: 4.9 µM
- effect on viability of HCT-116 colorectal cancer cells [18, 25]: decreases viability
- IC50 [19]: 9.6 µM
- effect on viability of U-2 OS osteosarcoma cancer cells [19, 25]: decreases viability
- IC50 [20]: 9.7 µM
- effect on viability of HT1080 fibrosarcoma cancer cells [20, 25]: decreases viability

Substance: ISFQLMLCVLDYF [7M, ISFQLMLCVLDYF]
- IC50 [1]: 6.6 µM
- IC50 [6]: 6.8 µM
- IC50 [7]: 109 µM
- IC50 [8]: 10 µM
- IC50 [13]: 7.4 µM

Substance: LMLCVLD [7MM6-D]
- effect on viability of cancer cells [3, 23]: decrease viability of cancer cells
- inhibition of CMG helicase [4]: inhibit CMG helicase

Substance: GMLCVL [7MM6-G2]
- effect on viability of cancer cells [3, 23]: decrease viability of cancer cells
- inhibition of CMG helicase [4]: inhibit CMG helicase

Substance: LMGCVLD [7MM6-G4-D]
- effect on viability of cancer cells [3, 23]: decrease viability of cancer cells
- inhibition of CMG helicase [4]: inhibit CMG helicase

Substance: LMGCVL [7MM6-G4]
- effect on viability of cancer cells [3, 23]: decrease viability of cancer cells
- inhibition of CMG helicase [4]: inhibit CMG helicase

Substance: LMLCVL [7MM6]
- effect on viability of cancer cells [3, 23]: decrease viability of cancer cells
- inhibition of CMG helicase [4]: inhibit CMG helicase

Substance: DLVISFALMLCVLDYFIK [7α-Q7A]
- effect on viability of BT-549 breast cancer cells [1, 21]: inhibit viability of breast cancer cells

Substance: GMLCVLD [7MM6-G2-D]
- effect on viability of cancer cells [3, 23]: decrease viability of cancer cells
- inhibition of CMG helicase [4]: inhibit CMG helicase

The next lines start with results.

- inhibition of CMG helicase in vitro (chromatin RPA Western blot) [2]: inhibit CMG helicase in vitro
Substance: SFQLMLCVLDYFIK (listed as Homo sapiens) [7α-4n]
- effect on viability of cancer cells [3, 22]: decrease viability of cancer cells

- inhibition of CMG helicase [4]: inhibit CMG helicase
Substance: QLMLCVLD [7MM-D]
- effect on viability of cancer cells [3, 23]: decrease viability of cancer cells

- inhibition of CMG helicase in vitro (chromatin RPA Western blot) [2]: inhibit CMG helicase in vitro
Substance: DLVISFQLMLCVLDYF (listed as Homo sapiens) [7α-17c]
- effect on viability of cancer cells [3, 22]: decrease viability of cancer cells

- inhibition of CMG helicase in vitro (chromatin RPA Western blot) [2]: inhibit CMG helicase in vitro
Substance: DVISFQLMLCVLD (DLVISFQLMLCVLD; listed as Homo sapiens) [7α-15c]
- effect on viability of cancer cells [3, 22]: decrease viability of cancer cells
- effect on viability of BT-549 breast cancer cells [1, 24]: decrease viability

- inhibition of CMG helicase in vitro (chromatin RPA Western blot) [2]: inhibit CMG helicase in vitro
Substance: FQLMLCVLDYFIK (listed as Homo sapiens) [7α-5n]
- effect on viability of cancer cells [3, 22]: decrease viability of cancer cells

- inhibition of CMG helicase in vitro (chromatin RPA Western blot) [2]: inhibit CMG helicase in vitro
Substance: LVISFQLMLCVLDYFIK (listed as Homo sapiens) [7α-1n]
- effect on viability of cancer cells [3, 22]: decrease viability of cancer cells

- inhibition of CMG helicase [4]: inhibit CMG helicase
Substance: QGMLCVL [7MM-G2]
- effect on viability of cancer cells [3, 23]: decrease viability of cancer cells

- inhibition of CMG helicase in vitro (chromatin RPA Western blot) [2]: inhibit CMG helicase in vitro
Substance: ISFQLMLCVLDYFIK (listed as Homo sapiens) [7α-3n]
- effect on viability of cancer cells [3, 22]: decrease viability of cancer cells

- inhibition of CMG helicase in vitro (chromatin RPA Western blot) [2]: inhibit CMG helicase in vitro
Substance: LMLCVLDYFIK (listed as Homo sapiens) [7α-7n]
- effect on viability of cancer cells [3, 22]: decrease viability of cancer cells
- effect on viability of BT-549 breast cancer cells [1, 24]: decrease viability

- inhibition of CMG helicase in vitro (chromatin RPA Western blot) [2]: inhibit CMG helicase in vitro
Substance: VISFQLMLCVLDYFIK (listed as Homo sapiens) [7α-2n]
- effect on viability of cancer cells [3, 22]: decrease viability of cancer cells

- inhibition of CMG helicase in vitro (chromatin RPA Western blot) [2]: inhibit CMG helicase in vitro
Substance: DLVISFQLMLCVLDY (listed as Homo sapiens) [7α-16c]
- effect on viability of cancer cells [3, 22]: decrease viability of cancer cells

- inhibition of CMG helicase in vitro (chromatin RPA Western blot) [2]: inhibit CMG helicase in vitro
Substance: DVISFQLMLCVL (DLVISFQLMLCVL; listed as Homo sapiens) [7α-14c]
- effect on viability of cancer cells [3, 22]: decrease viability of cancer cells
- effect on viability of BT-549 breast cancer cells [1, 24]: decrease viability

- inhibition of CMG helicase in vitro (chromatin RPA Western blot) [2]: inhibit CMG helicase in vitro
Substance: DVISFQLML (DLVISFQLML; listed as Homo sapiens) [7α-11c]
- effect on viability of cancer cells [3, 22]: decrease viability of cancer cells
- effect on viability of BT-549 breast cancer cells [1, 24]: decrease viability

- inhibition of CMG helicase in vitro (chromatin RPA Western blot) [2]: inhibit CMG helicase in vitro
Substance: QLMLCVLDYFIK (listed as Homo sapiens) [7α-6n]
- effect on viability of cancer cells [3, 22]: decrease viability of cancer cells
- effect on viability of BT-549 breast cancer cells [1, 24]: decrease viability

- inhibition of CMG helicase [4]: inhibit CMG helicase
Substance: QLMGCVL [7MM-G4]
- effect on viability of cancer cells [3, 23]: decrease viability of cancer cells
